Reference: US4918099A, “Drug, preparation and use thereof” (priority 1985, dated 1990)
Like-named read-outs stand apart in the source and are kept apart here.

What was measured:
[1] = system: platelet aggregation in normal human plasma; assay: Platelet aggregation in normal human plasma induced by ADP; assay type: cell-based; settings: for T/min, Aggregation (first value) / Tmax, Aggregation (first value): control 75.1; for activity at 1000 µM / inhibition at 1000 µM / activity at 100 µM / inhibition at 100 µM: Homo sapiens, Platelet; for activity at 1000 µM / activity at 100 µM: control 100
Procedure: (§1) The platelet aggregation was determined by a tubimetric method in a dual-channel aggregometer, assuming that a platelet-poor plasma represented 100% aggregation and that a platelet-rich plasma represented 0% aggregation. Each aggregometer tube was charged with 40 μl of platelet-rich plasma and 50 μl of test sample solution. The mixture was incubated at 37° C. for 2 min., whereupon 50 μl of ADP solution were added. Percent inhibition of the platelet aggregation caused by the test sample solution was calculated as follows: [formula]

prostacyclin synthetase = settings: conventional prostaglandin synthesis inhibitors; cited from earlier work
[2] = system: platelet aggregation in diabetic human plasma; assay: Platelet aggregation in diabetic human plasma induced by ADP; assay type: cell-based; settings: for activity at 1000 µM / inhibition at 1000 µM / activity at 100 µM / inhibition at 100 µM: Homo sapiens, Platelet; for activity at 1000 µM / activity at 100 µM: control 100
Procedure: as §1

cyclo-oxygenase = settings: conventional prostaglandin synthesis inhibitors; cited from earlier work
[3] = Rev. Latinoam. Microbiol. 1, 225-232 (1958); cited from earlier work
[4] = system: lipid peroxidation in the mitochondria of rat liver; settings: Arch. Pharm. Res. 7, 63-64, 1984; cited from earlier work
[5] = Planta Med. 31, 214-220 (1977); cited from earlier work
[6] = Comparison of synthetic substances with full extract; settings: synthetically prepared substance
plasmalipid = settings: spontaneously hypertensive rats; Fette-Seifen-Anstrichmittel 87, 74-76 (1985); cited from earlier work
[7] = Increase of the peripheral insulin action in diabetic mice; assay type: in vivo; settings: 0.46 mU/g, control group (FIG. 5)
Procedure: Diabetic mice were divided into a control group and a test group. A dose of 100 mg of brazilin per kg body weight was daily administered to the animals of the test group; instead of brazilin, the same amount of saline solution was injected intraperitoneally to the animals of the control group.
After 30 test days, the body weight of the animals of the test group was higher and the blood sugar values of these animals were lower as compared to the diabetic animals of the control group.
On the 30th test day, the animals were made to fast for 5 h; thereupon, they were injected intravenously with 0.46 mU/g of NPH insulin. Then, the blood sugar values were measured at respective intervals of 5 min.

[8] = 10^-3 M, read-out: T/min, Aggregation relative to control (second value)
[9] = 10^-3 M, read-out: Tmax, Aggregation relative to control (second value)
[10] = 10^-3 M, read-out: T/min, Inhibition
[11] = 10^-3 M, read-out: Tmax, Inhibition
[12] = 10^-4 M, read-out: T/min, Aggregation relative to control (second value)
[13] = 10^-4 M, read-out: Tmax, Aggregation relative to control (second value)
[14] = 10^-4 M, read-out: T/min, Inhibition
[15] = 10^-4 M, read-out: Tmax, Inhibition

| Compound | T/min, Aggregation (first value) ([1]; 10^-3 M) | Tmax, Aggregation (first value) ([1]; 10^-3 M) | T/min, Aggregation (first value) ([1]; 10^-4 M) | Tmax, Aggregation (first value) ([1]; 10^-4 M) | activity at 1000 µM [1, 8] | activity at 1000 µM [1, 9] | inhibition at 1000 µM [1, 10] | inhibition at 1000 µM [1, 11] | activity at 100 µM [1, 12] | activity at 100 µM [1, 13] | inhibition at 100 µM [1, 14] | inhibition at 100 µM [1, 15] | inhibition of prostacyclin synthetase (prostacyclin synthetase) | Tmax, Aggregation (first value) ([2]; 10^-3 M, control 78.7) | Tmax, Aggregation (first value) ([2]; 10^-4 M, control 78.7) | activity at 1000 µM [2, 9] | inhibition at 1000 µM [2, 11] | activity at 100 µM [2, 13] | inhibition at 100 µM [2, 15] | inhibition of cyclo-oxygenase (cyclo-oxygenase) | further results |
| --- | --- | --- | --- | --- | --- | --- | --- | --- | --- | --- | --- | --- | --- | --- | --- | --- | --- | --- | --- | --- | --- |
| CC(=O)Oc1ccccc1C(=O)O [acetylsalicylic acid, reference compound] | 11.9% | 37.5% | 17.4% | 60.2% | 15.8% | 49.9% | 84.6% | 50.1% | 23.2% | 80.1% | 76.8% | 19.9% | prostacyclin synthetase is also undesirably inhibited | 70.0% | 73.8% | 88.9% | 11.1% | 93.6% | 6.4% | inhibit the activity of cyclo-oxygenase | – |
| COc1ccc2c(c1)c(CC(=O)O)c(C)n2C(=O)c1ccc(Cl)cc1 [indomethacin] | – | – | – | – | – | – | – | – | – | – | – | – | prostacyclin synthetase is also undesirably inhibited | – | – | – | – | – | – | inhibit the activity of cyclo-oxygenase | – |
| Oc1cc2c(cc1O)[C@@H]1c3ccc(O)c(O)c3OC[C@]1(O)C2 [hematoxylin] | 11.7% | 22.6% | 58.8% | 68.1% | 15.6% | 30.8% | 84.4% | 69.8% | 78.4% | 90.6% | 21.7% | 9.4% | – | 52.5% | 76.3% | 66.5% | 33.5% | 96.8% | 3.2% | – | antibacterial effect [3]: antibacterial effect; effect on lipid peroxidation in mitochondria of rat liver [4]: effect on the lipid peroxidation; anti-inflammatory effect [5]: anti-inflammatory effect; effects compared with administration of major amounts of full extract [6]: substantially has the same effects; T/min, Aggregation (first value) ([2]; 10^-3 M, control 78.7): 7.5%; activity at 1000 µM [2, 8]: 9.5%; inhibition at 1000 µM [2, 10]: 90.5%; inhibition of the platelet aggregation ([2]; conclusion on Tables 12 and 13): considerable inhibition of the platelet aggregation; plasmalipid-reducing effect (plasmalipid): plasmalipid-reducing effect |
| NPH insulin [reference compound] | – | – | – | – | – | – | – | – | – | – | – | – | – | – | – | – | – | – | – | – | blood sugar after i.v. NPH insulin in diabetic control mice [7]: cannot significantly change the blood sugar value |
